{
  "source": "patent US20210386733A1",
  "about": "“LYSINE-SPECIFIC HISTONE DEMETHYLASE INHIBITORS FOR THE TREATMENT OF MYELOPROLIFERATIVE NEOPLASMS” (Imago Biosciences, Inc., priority 2019, published 2021)",
  "test_system": "patients with high-risk MF",
  "test": "Phase 1/2A clinical trial of Compound 1 in myelofibrosis (Example 1)",
  "type": "in vivo, human",
  "from_the_text": "A multi-center, open-label study evaluating the safety, tolerability, steady-state pharmacokinetics and pharmacodynamics of Compound 1 administered orally once daily in patients with high-risk MF, including primary myelofibrosis (PMF), post-polycythemia vera myelofibrosis (PPV-MF), and post-essential thrombocythemia myelofibrosis (PET-MF) (collectively referred to as ‘MF’) was initiated as a Phase 1/2A study, and was expanded to a Phase 2b study.\nThe Phase 1/2A portion of the study assessed: the safety of the original starting dose, 0.25 mg/kg/d; an 85-day duration of treatment with a subsequent washout period of up to 28 days; and, pharmacokinetic and drug concentration measurements. […] With transition to a Phase 2b study, changes supported by the earlier pharmacokinetic and pharmacodynamic studies and safety assessments were implemented, including: an increased starting dose of 0.5 mg/kg/d with larger titration increments; a 168-day (24 week) duration of treatment, with continuous dosing via removal of the washout period; elimination of PK and drug concentration sampling; and, a reduced visit schedule.\nThis study was conducted at multiple sites. Up to 50 patients, eighteen years of age or older, with high-risk myelofibrosis were treated. The primary objectives included safety and tolerability, pharmacokinetics (PK; Phase 1/2A only) and spleen volume reduction (SVR). […] Key inclusion criteria included: high- or intermediate-2 risk myelofibrosis; per the Investigator's judgment have failed (refractory or resistant to, inadequately controlled by or intolerant of), or are not a candidate for, available approved therapy including ruxolitinib; platelet count≥100K/μL; and, circulating blasts ≤10%.\nIn the Phase 1/2a portion of the study, patients started at the presumed sub-therapeutic dose of 0.25 mg/kg/d. Dose-adjustments were made weekly (the lifespan of a human platelet) with dose-titration, either upward or downward, contingent on platelet values at the time of evaluation. Upward titrations were made in increments of 0.125 or 0.0625 mg/kg/d as shown below. Downward titrations were made in decrements of 50% of the current dose. […] The titration target platelet count expected to be associated with most efficacious therapeutic effect was ≥50,000 to <100,000/μL (50-100×10^9/L). The Phase 1/2a titration and re-challenge rules based on weekly evaluation of platelet counts are noted below in Table 1.\nAll but one patient had received one or more prior treatments including ruxolitinib. 48% had PMF, 33% PET-MF, 19% PPV-MF. The median patient age was 65 years (48-89) with 58% males. 48% were classified as high risk (IPSS), the remainder, intermediate risk-2. […] A substantial fraction of the patients had ≥3 mutations. Patients were treated daily for 12 weeks, in accordance with above starting dose and titration rules, followed by a washout period of up to 28 days. Starting platelet counts ranged from about 141 to about 1309 k/μL. Bone marrow biopsies and imaging studies of the abdomen were conducted prior to treatment and during the washout period after 12 weeks of dosing. Grading of myelofibrosis was performed centrally using the 2016 revised World Health Organization classification of myeloid neoplasia (Arber et al., 2016); image reading was also performed centrally. The Myeloproliferative Neoplasm Symptom Assessment Form (MPN-SAF) was self-administered at Baseline and weekly from Day 0 through the End of Study (EoS) Visit. Total symptom scores were derived from this tool. Patients for whom clinical benefit was demonstrable could resume treatment for additional 12-week cycles.",
  "key": {"[1]": {"details": "13 patients with biopsies, Day 0 to Day 84 or EoT"}, "[2]": {"details": "of the 3 with Hb>10 g/dL at day 0, day 84"}, "[3]": {"details": "of the 6 transfusion-independent patients with Hb<10 g/dL"}, "[4]": {"details": "of the 9 transfusion-dependent patients, day 84"}},
  "note": "Where a name gives a salt, the structure may show the parent alone.",
  "data": [
    {"smiles": "CN1CCN(C(=O)[C@H](CCCN[C@@H]2C[C@H]2c2ccc(F)cc2)NC(=O)c2ccc(-n3ccnn3)cc2)CC1", "note": "[Compound 1, N-[(2S)-5-{[(1R, 2S)-2-(4-fluorophenyl)cyclopropyl]amino}-1-(4-methylpiperazin-1-yl)-1-oxopentan-2-yl]-4-(1H-1,2,3-triazol-1-yl)benzamide, bis-tosylate salt]", "values": [
      {"measurement": "patients whose bone marrow fibrosis progressed by 1 Grade", "setting": "[1]", "value": 23, "unit": "%"},
      {"measurement": "patients with a stable bone marrow fibrosis score", "setting": "[1]", "value": 62, "unit": "%"},
      {"measurement": "patients with bone marrow fibrosis improvement of ≥1 grade", "setting": "[1]", "value": 15, "unit": "%"},
      {"measurement": "28 days expressed in half-lives of the drug", "setting": "at the doses used in this study", "value": "> 10", "unit": "half-lives"},
      {"measurement": "spleen volume response (SVR) and total symptom score (TSS) compared with Best Available Treatment (BAT)", "setting": "day 0 to day 84, BAT as in PERSIST-2 trial, FIG. 3", "value": "outperformed the BAT"},
      {"measurement": "effect on myelofibrosis symptoms", "setting": "evaluable patients N=14, preliminary analysis", "value": "profound effect"},
      {"measurement": "range of total daily dose needed to achieve a platelet count in the target range", "setting": "excluding highest and lowest doses", "value": "53 to 90", "unit": "mg"},
      {"measurement": "mean total daily dose needed to achieve a platelet count in the target range", "setting": "excluding highest and lowest doses (4 mg and 100 mg), target 50,000-75,000 platelets per microliter, S.D. 13.8", "value": 78.3, "unit": "mg"},
      {"measurement": "mean therapeutic dose per body weight", "setting": "first sixteen patients, assuming an average weight of 75 kg", "value": 0.85, "unit": "mg/kg/day"},
      {"measurement": "overall efficacy on spleen volumes and symptom scores", "setting": "heterogeneous population of MF patients with limited therapeutic options", "value": "effective in reducing spleen volumes and substantially improving symptom scores in a majority of patients"},
      {"measurement": "improvements in symptom scores", "setting": "human, in vivo", "value": "generally dose-dependent and rapid"},
      {"measurement": "levels of CCL3, IL-6, IL-10, IL-33, IL-28A, IFNβ, IFNα, IFNγ", "setting": "in the course of treatment", "value": "not elevated in any patient"},
      {"measurement": "patients with improved Hb (increase of Hb>1 g/dL)", "setting": "[2]", "value": 1, "unit": "patients"},
      {"measurement": "patients with worsened Hb (decrease of Hb>1 g/dL)", "setting": "[2]", "value": 2, "unit": "patients"},
      {"measurement": "patients who remained stable (Hb)", "setting": "[3]", "value": 3, "unit": "patients"},
      {"measurement": "patients who worsened (became transfusion dependent or Hb drop by >1 g/dL)", "setting": "[3]", "value": 2, "unit": "patients"},
      {"measurement": "patients with improved Hb", "setting": "[3]", "value": 1, "unit": "patients"},
      {"measurement": "patients who became transfusion-independent and had improved Hb of >1 g/dL", "setting": "of the 9 transfusion-dependent patients (Hb<10 g/dL), day 84", "value": 1, "unit": "patients"},
      {"measurement": "patients who maintained stable transfusion frequency", "setting": "[4]", "value": 8, "unit": "patients"},
      {"measurement": "patients with increased transfusion frequency", "setting": "[4]", "value": "one"},
      {"measurement": "lymphocytes counts", "setting": "on treatment", "value": "unchanged"},
      {"measurement": "monocyte counts", "setting": "on treatment", "value": "generally modestly elevated"},
      {"measurement": "peripheral granulocyte counts", "setting": "on treatment", "value": "lower"},
      {"measurement": "platelet counts", "setting": "on treatment", "value": "reduced platelet counts in all patients"},
      {"measurement": "mean dose needed to achieve and safely maintain the target platelet count (therapeutic dose)", "setting": "re-analysis of first sixteen patients", "value": 63.8, "unit": "mg/day"},
      {"measurement": "platelet counts after cessation of treatment", "setting": "reversibility of the anti-thrombopoietic effect", "value": "rebounded robustly"},
      {"measurement": "percent of F-cells (fetal hemoglobin containing erythrocytes)", "setting": "six patients, FIG. 10", "value": "reduced the percent of F-cells"},
      {"measurement": "patients with reduction in symptom score (MPN-10)", "setting": "week 12", "value": 79, "unit": "%"},
      {"measurement": "patients with reduction in symptom score by ≥50%", "setting": "week 12", "value": 21, "unit": "%"},
      {"measurement": "inflammatory cytokine S100A9", "setting": "week 12, FIG. 4", "value": "generally decreased"},
      {"measurement": "inflammatory cytokine RANTES", "setting": "week 12, FIG. 5", "value": "generally decreased"},
      {"measurement": "inflammatory cytokine IL-8", "setting": "week 12, FIG. 6", "value": "generally decreased"},
      {"measurement": "circulating growth factor VEGF", "setting": "week 12, FIG. 7", "value": "generally decreased"},
      {"measurement": "circulating growth factor PDGF-BB", "setting": "week 12, FIG. 8", "value": "generally decreased"},
      {"measurement": "patients with a decrease in spleen volume", "setting": "week 12, evaluable N=14", "value": 50, "unit": "%"},
      {"measurement": "patients with a decrease in spleen volume", "setting": "week 24", "value": 75, "unit": "%"},
      {"measurement": "patients with a decrease in spleen volume by 35%", "setting": "week 24", "value": 12.5, "unit": "%"},
      {"measurement": "patients with a decrease in symptom score", "setting": "week 24", "value": 89, "unit": "%"},
      {"measurement": "patients with a decrease in symptom score by ≥50%", "setting": "week 24", "value": 44, "unit": "%"},
      {"measurement": "patients with improved scores of fatigue", "setting": "within 14 days, at the lowest two doses", "value": "8 of the first 16 patients"}
    ]}
  ]
}
